Results on 7 molecules are retold here after ChEMBL document CHEMBL6083254, “Optimization of B-Ring-Functionalized Antimalarial Tambjamines and Prodiginines” (J Med Chem, 2024).

Where “and” joins values, the source holds several entries; their conditions need not be identical. Identical values can stand only once. Calls of active or inactive are those of the source. No cut-off for these calls is given here.

The test system of data set [1] is Plasmodium yoelii. As to the kind of experiment: Antiplasmodial activity against asexual erythrocytic stage of Plasmodium yoelii infected in female CFI mouse model at 25 mg/kg, po administered once daily for 4 days and measured on day 5 by Giemsa staining based microscopic analysis. Format: functional, organism-based. The settings on record: time 5.0 day.
In data set [2] the test system is Plasmodium falciparum. As to the kind of experiment: microbe, parasite or virus in culture. The settings on record: D6, 72 h.
Data set [3] can be described thus: Metabolic stability in mouse liver microsomes assessed as half life measured upto 60 mins LC-MS analysis. (Microsomes from liver hold many membrane-bound enzymes, among them those of drug oxidation.)
Data set [4] has as its system HepG2. As to the kind of experiment: (§1) Cytotoxicity against human HepG2 cells assessed as cell viability incubated for 72 hrs by MTT assay. Type of data set: toxicity, cell-based. As to conditions: hepg2. (In general: Tetrazolium assays rely on reduction of a dye to a coloured formazan, in cell work by metabolically active cells.)
For data set [5], the system named is Plasmodium yoelii. As to the kind of experiment: Antiplasmodial activity against asexual erythrocytic stage of Plasmodium yoelii infected in female CFI mouse model assessed as reduction in parasitemia at 25 mg/kg, po administered once daily for 4 days and measured on day 5 by Giemsa staining based microscopic analysis relative to control. Details: scale not given: the % may be the effect or the level left. The settings on record: time 5 day. Format: functional.

Data set [6] in a line: Metabolic stability in human liver microsomes assessed as half life measured upto 60 mins LC-MS analysis.
Data set [7] in a line: in vitro. As to conditions: human.
Description: Selectivity index, ratio of IC50 for cytotoxicity against human HepG2 cells assessed as cell viability to IC50 for antiplasmodial activity against asexual erythrocytic stage of Plasmodium falciparum D6 assessed as inhibition of parasitic growth incubated
Data set [8] relates to Plasmodium falciparum. As to the kind of experiment: microbe, parasite or virus in culture. The settings on record: Tm90-C2B, 72 h.
Data set [9] can be described thus: Metabolic stability in mouse liver microsomes assessed as intrinsic clearance measured upto 60 mins LC-MS analysis.
Data set [10] is described as follows: Metabolic stability in human liver microsomes assessed as intrinsic clearance measured upto 60 mins LC-MS analysis.
Data set [11] deals with Plasmodium yoelii. As to the kind of experiment: Antiplasmodial activity against asexual erythrocytic stage of Plasmodium yoelii infected in female CFI mouse model at 10 mg/kg, po administered once daily for 4 days and measured on day 5 by Giemsa staining based microscopic analysis. The settings on record: time 5.0 day. Format: functional, organism-based.
The subject of data set [12] is Plasmodium yoelii. As to the kind of experiment: Antiplasmodial activity against asexual erythrocytic stage of Plasmodium yoelii infected in female CFI mouse model assessed as reduction in parasitemia at 10 mg/kg, po administered once daily for 4 days and measured on day 5 by Giemsa staining based microscopic analysis relative to control. Type of data set: functional. Details: scale not given: the % may be the effect or the level left.

Data set [13] relates to Plasmodium falciparum. As to the kind of experiment: microbe, parasite or virus in culture. As to conditions: Dd2, 72 h.
Data set [14] deals with Plasmodium yoelii. As to the kind of experiment: Antiplasmodial activity against asexual erythrocytic stage of Plasmodium yoelii infected in female CFI mouse model assessed as reduction in parasitemia at 1 mg/kg, po administered once daily for 4 days and measured on day 5 by Giemsa staining based microscopic analysis relative to control. Format: functional. Details: scale not given: the % may be the effect or the level left.

The subject of data set [15] is Plasmodium yoelii. As to the kind of experiment: Antiplasmodial activity against asexual erythrocytic stage of Plasmodium yoelii infected in po dosed female CFI mouse model assessed as reduction in parasitemia administered once daily for 4 days and measured on day 5 by Giemsa staining based microscopic analysis. Type of data set: functional. The settings on record: 120 h, time 5 day.

For data set [16], the system named is Plasmodium yoelii. As to the kind of experiment: Antiplasmodial activity against asexual erythrocytic stage of Plasmodium yoelii infected in female CFI mouse model assessed as reduction in parasitemia at 3 mg/kg, po administered once daily for 4 days and measured on day 5 by Giemsa staining based microscopic analysis relative to control. Type of data set: functional. Details: scale not given: the % may be the effect or the level left.

A short description of data set [17]: Aqueous solubility of compound in PBS buffer at pH 7.4 incubated for 90 mins by UV-vis spectroscopic analysis. As to conditions: pH 7.4, 1.5 h.
A short description of data set [18]: as §1. Type of data set: toxicity, cell-based. The settings on record: human, HepG2 cells.
Setting [19] is: Plasmodium yoelii, po, read-out: ED50.

By IC50 is commonly meant the concentration that inhibits the measured activity by half. Broadly, the half-life is how long it takes for the measured level to halve. Usually microsomal CLint stands for the capacity of the preparation to metabolise the compound, expressed as a volume cleared per time. For orientation: ED50 means the dose that gives a 50% effect, or the effect in half of the subjects. The solubility is how much of the substance goes into solution per volume. For the molecule `CCCCCc1cc(/C=C2\N=C(c3ccc[nH]3)C=C2Oc2ccc(OC(F)(F)F)cc2)[nH]c1C.Cl`, the outcome in [1] was Active. In addition, the IC50 in data set [2] was 8.61 nM; in [4], 16500 nM; in [8], 9.54 nM; in data set [13] it was 7.4 nM. Further, the results for the half-life at 1 h in [3] and in data set [6] were 38 min and 59.4 min, respectively. The Activity in [5] is recorded as 100%; in data set [12] (time 5 day) it was 100%; in [14] (time 5 day), 49.1%; in [16] (time 5 day) it was 92%. Moreover, in data set [7], the selectivity ratio is 1910. In addition, the intrinsic clearance (microsomal CLint) at 1 h was found to be 36.4 µL/min/mg in data set [9] and 23.3 µL/min/mg in data set [10]. In data set [11], the result was inactive. In addition, the 50% effective dose (ED50) in [15] (setting [19]) stood at 1.01 mg/kg/day. The molecule also came in with a solubility in [17] of less than 3.125 µM.
On to `CCCCCCCCCCCc1ccc(/C=C2\N=C(c3ccc[nH]3)C=C2Oc2ccccc2)[nH]1.Cl`, for which the result in data set [1], in [12] (time 5.0 day), in data set [14] (time 5.0 day) and in data set [16] (time 5.0 day) was inactive. For the same molecule, the half-life at 1 h is 16.2 min in data set [3] and 59.2 min in data set [6]. Besides, the IC50 at 72 h in data set [18] was greater than 200000 nM. Besides, the Activity in data set [5] is given as 100%. Also, the selectivity ratio in data set [7] was greater than 2440. The IC50 in data set [8] is 64.3 nM; in data set [13], 80.9 nM. Besides, the microsomal CLint at 1 h stood at 85.7 µL/min/mg in [9] and 23.4 µL/min/mg in [10]. Besides, the solubility in data set [17] is 8.19 µM.
Take `CCCCCC1=C/C(=C\c2[nH]c(-c3ccc[nH]3)cc2OC)N=C1C`: the figures for the IC50 in [2], in data set [8] and in data set [13] were 8.01 nM, 8.8 nM and 7.32 nM, respectively. Moreover, the values for the half-life at 1 h in data set [3] and in data set [6] were 23 min and greater than 60 min, respectively. Also, the IC50 at 72 h in data set [18] came to 1070 nM. The results for the intrinsic metabolic clearance (microsomal CLint) at 1 h in [9] and in data set [10] were 61.2 µL/min/mg and 13.1 µL/min/mg, respectively.
Turning to `CCCCCc1cc(/C=C2\N=C(c3ccc[nH]3)C=C2OCC)[nH]c1C.Cl`, the IC50 in data set [2] was 2.45 nM; in data set [4], 3680 nM; in [8] it was 7.29 nM; in data set [13] it was 1.31 nM. In addition, the Activity in data set [5] is reported as 100%; in data set [12] (time 5 day), 100%; in [14] (time 5 day) it was 2.1%; in data set [16] (time 5 day), 46.6%. Besides, the selectivity ratio in data set [7] worked out at 1500. Further, in data set [11], the result was inactive. For the same molecule, the ED50 amounted to 3.12 mg/kg/day in [15] (setting [19]) and 5.61 mg/kg/day in [15].
Turning to `CCCCCc1cc(/C=C2\N=C(c3ccc[nH]3)C=C2OCCC)[nH]c1C.Cl`, the IC50 turned out to be 0.307 nM in [2], 3560 nM in data set [4], 4.58 nM in data set [8] and 0.501 nM in [13]. Moreover, the half-life at 1 h in data set [3] is 34 min; in data set [6] it was 43.6 min. The Activity in data set [5] was 100%; in [12] (time 5 day) it was 100%; in [14] (time 5 day), 23.9%; in [16] (time 5 day), 89.9%. The selectivity ratio in [7] is 11600. In addition, the figures for the microsomal CLint at 1 h in data set [9] and in [10] were 40.8 µL/min/mg and 31.8 µL/min/mg, respectively. Besides, the result in [11] was inactive. For the same molecule, the 50% effective dose (ED50) in [15] was 1.46 mg/kg/day and 3 mg/kg/day. Further, the solubility in [17] turned out to be 18.5 µM.
Turning to `CCCCCCCCCCCC1=N/C(=C\c2[nH]c(-c3ccc[nH]3)cc2OC)C=C1` [UNDECYLPRODIGININE], in [1], the result was Active. The IC50 in data set [2] was determined as 7.22 nM; in [8], 8.21 nM; in data set [13], 7.54 nM. The concentration for half-maximal inhibition (IC50) at 72 h in data set [18] was found to be 1710 nM. Besides, the Activity in [5] was determined as 100%. The selectivity ratio in data set [7] stood at 237. For the same molecule, the outcome in data set [12] (time 5.0 day), in [14] (time 5.0 day) and in data set [16] (time 5.0 day) was inactive.
As for `CCCCCc1cc(/C=C2\N=C(c3ccc[nH]3)C=C2OC(C)C)[nH]c1C.Cl`, the outcome in data set [1] was Active. The IC50 stood at 1.09 nM in data set [2], 3480 nM in [4], 1.56 nM in [8] and 0.27 nM in [13]. The Activity in data set [5] amounted to 100%; in [12] (time 5 day) it was 100%; in data set [14] (time 5 day), 4.2%; in data set [16] (time 5 day) it was 71.8%. Also, in data set [7], the selectivity ratio is 3190. Further, the outcome in data set [11] was inactive. Further, the ED50 worked out at 2.25 mg/kg/day in [15] (setting [19]) and 4.42 mg/kg/day in [15].
